Converted amounts (≈) assume the structure as drawn.
Key:
Experiment in all cases: ≥ marks a high value that may be exact or a test limit, other limits are often not marked, values filed in µg/mL are converted to µM
[1] = tested on: Escherichia coli K-12 594
[2] = tested on: Staphylococcus aureus ATCC 6538P
[3] = tested on: Staphylococcus aureus SR1550
Acinetobacter baumannii = tested on: Acinetobacter baumannii
[4] = tested on: Escherichia coli ATCC 25922
Escherichia coli K88 = tested on: Escherichia coli K88
Escherichia coli K99 = tested on: Escherichia coli K99
Escherichia coli UB1005 = tested on: Escherichia coli UB1005
Escherichia coli = tested on: Escherichia coli
Klebsiella pneumoniae = tested on: Klebsiella pneumoniae
[5] = tested on: Pseudomonas aeruginosa ATCC 27853
[6] = tested on: Pseudomonas aeruginosa CICC 21625
[7] = tested on: Pseudomonas aeruginosa CICC 21630
[8] = tested on: Pseudomonas aeruginosa PAO1
Pseudomonas aeruginosa = tested on: Pseudomonas aeruginosa
[9] = tested on: Salmonella enterica subsp. enterica serovar Pullorum C79-13
[10] = tested on: Salmonella enterica subsp. enterica serovar Typhimurium ATCC 14028
[11] = tested on: Salmonella enterica subsp. enterica serovar Typhimurium C77-31
[12] = tested on: Candida albicans CGMCC 2.2086
Candida albicans = tested on: Candida albicans
[13] = tested on: Candida parapsilosis CGMCC 2.3989
[14] = tested on: Candida tropicalis CGMCC 2.1975

| Compound | MIC [1] [µM] | MIC [2] [µM] | MIC [3] [µM] | MIC (Acinetobacter baumannii) [µM] | MIC [4] [µM] | MIC (Escherichia coli K88) [µM] | MIC (Escherichia coli K99) [µM] | MIC (Escherichia coli UB1005) [µM] | MIC (Escherichia coli) [µM] | MIC (Klebsiella pneumoniae) [µM] | MIC [5] [µM] | MIC [6] [µM] | MIC [7] [µM] | MIC [8] [µM] | MIC (Pseudomonas aeruginosa) [µM] | MIC [9] [µM] | MIC [10] [µM] | MIC [11] [µM] | also measured |
| --- | --- | --- | --- | --- | --- | --- | --- | --- | --- | --- | --- | --- | --- | --- | --- | --- | --- | --- | --- |
| CC(C)C[C@H](NC(=O)[C@H](CCCN=C(N)N)NC(=O)[C@H](CC(C)C)NC(=O)[C@H](CC(C)C)NC(=O)[C@H](CC(C)C)NC(=O)[C@H](CC(C)C)NC(=O)[C@H](CC(C)C)NC(=O)[C@H](CCCCN)NC(=O)[C@H](CC(C)C)NC(=O)[C@@H](N)CCCN=C(N)N)C(=O)N[C@@H](CCCCN)C(N)=O [RLKLLLLLRLK] | 14.5 (≈ 20 µg/mL) | 0.725 (≈ 0.999 µg/mL) | 21.8 (≈ 30 µg/mL) | – | – | – | – | – | – | – | – | – | – | – | – | – | – | – | – |
| CC[C@H](C)[C@H](N)C(=O)N[C@@H](CCCCN)C(=O)N1CCC[C@H]1C(=O)N[C@H](C(=O)N[C@H](C(=O)N[C@@H](CCCCN)C(=O)N1CCC[C@H]1C(=O)N[C@H](C(=O)N[C@H](C(=O)N[C@@H](CCCCN)C(=O)N1CCC[C@H]1C(=O)N[C@H](C(=O)N[C@H](C(=O)N[C@@H](CCCCN)C(=O)N1CCC[C@H]1C(=O)N[C@H](C(=O)N[C@H](C(=O)N[C@@H](CCCCN)C(=O)N1CCC[C@H]1C(=O)N[C@H](C(=O)N[C@H](C(=O)N[C@@H](CCCCN)C(=O)N1CCC[C@H]1C(=O)N[C@H](C(N)=O)[C@@H](C)CC)[C@@H](C)CC)[C@@H](C)CC)[C@@H](C)CC)[C@@H](C)CC)[C@@H](C)CC)[C@@H](C)CC)[C@@H](C)CC)[C@@H](C)CC)[C@@H](C)CC)[C@@H](C)CC [IKPIIKPIIKPIIKPIIKPIIKPI] | – | – | – | 16 (≈ 43.6 µg/mL) | 16 (≈ 43.6 µg/mL) | 4 (≈ 10.9 µg/mL) | 8 (≈ 21.8 µg/mL) | 16 (≈ 43.6 µg/mL) | 64 (≈ 175 µg/mL) | > 64 | > 64 | ≥ 64 | ≥ 64 | > 64 | > 64 | ≥ 64 | 64 (≈ 175 µg/mL) | ≥ 64 | – |
| CC(C)[C@H](N)C(=O)N[C@@H](CCCN=C(N)N)C(=O)N1CCC[C@H]1C(=O)N[C@H](C(=O)N[C@H](C(=O)N[C@@H](CCCN=C(N)N)C(=O)N1CCC[C@H]1C(=O)N[C@H](C(=O)N[C@H](C(=O)N[C@@H](CCCN=C(N)N)C(=O)N1CCC[C@H]1C(=O)N[C@H](C(=O)N[C@H](C(=O)N[C@@H](CCCN=C(N)N)C(=O)N1CCC[C@H]1C(=O)N[C@H](C(=O)N[C@H](C(=O)N[C@@H](CCCN=C(N)N)C(=O)N1CCC[C@H]1C(=O)N[C@H](C(=O)N[C@H](C(=O)N[C@@H](CCCN=C(N)N)C(=O)N1CCC[C@H]1C(=O)N[C@H](C(=O)N[C@H](C(=O)N[C@@H](CCCN=C(N)N)C(=O)N1CCC[C@H]1C(=O)N[C@H](C(N)=O)C(C)C)C(C)C)C(C)C)C(C)C)C(C)C)C(C)C)C(C)C)C(C)C)C(C)C)C(C)C)C(C)C)C(C)C)C(C)C [VRPVVRPVVRPVVRPVVRPVVRPVVRPV] | – | – | – | 4 (≈ 12.7 µg/mL) | 8 (≈ 25.4 µg/mL) | 8 (≈ 25.4 µg/mL) | 16 (≈ 50.8 µg/mL) | 8 (≈ 25.4 µg/mL) | 8 (≈ 25.4 µg/mL) | 32 (≈ 102 µg/mL) | > 64 | ≥ 64 | ≥ 64 | > 64 | > 64 | 4 (≈ 12.7 µg/mL) | 8 (≈ 25.4 µg/mL) | 16 (≈ 50.8 µg/mL) | – |
| CC[C@H](C)[C@H](NC(=O)[C@@H](N)CCCCN)C(=O)NCC(=O)N[C@@H](CCCCN)C(=O)N[C@H](C(=O)N[C@@H](CC(C)C)C(N)=O)C(C)C [KIGKVL] | – | – | – | – | – | – | – | – | – | – | – | – | – | – | – | – | – | – | MIC [12]: ≥ 64 µM; MIC (Candida albicans): > 64 µM; MIC [13]: ≥ 64 µM; MIC [14]: ≥ 64 µM |
| CC(C)C[C@H](NC(=O)[C@H](CCCN=C(N)N)NC(=O)[C@H](CC(C)C)NC(=O)[C@H](CC(C)C)NC(=O)[C@H](CC(C)C)NC(=O)[C@H](CCCCN)NC(=O)[C@H](CC(C)C)NC(=O)[C@@H](N)CCCN=C(N)N)C(=O)N[C@@H](CCCCN)C(N)=O [RLKLLLRLK] | 26 (≈ 30 µg/mL) | 1.74 (≈ 2 µg/mL) | 30.4 (≈ 35 µg/mL) | – | – | – | – | – | – | – | – | – | – | – | – | – | – | – | – |
| CC(C)C[C@H](NC(=O)[C@@H]1CCCN1C(=O)[C@H](CCCN=C(N)N)NC(=O)[C@H](CC(C)C)NC(=O)[C@H](CC(C)C)NC(=O)[C@@H]1CCCN1C(=O)[C@H](CCCN=C(N)N)NC(=O)[C@H](CC(C)C)NC(=O)[C@H](CC(C)C)NC(=O)[C@@H]1CCCN1C(=O)[C@H](CCCN=C(N)N)NC(=O)[C@H](CC(C)C)NC(=O)[C@H](CC(C)C)NC(=O)[C@@H]1CCCN1C(=O)[C@H](CCCN=C(N)N)NC(=O)[C@H](CC(C)C)NC(=O)[C@H](CC(C)C)NC(=O)[C@@H]1CCCN1C(=O)[C@H](CCCN=C(N)N)NC(=O)[C@H](CC(C)C)NC(=O)[C@H](CC(C)C)NC(=O)[C@@H]1CCCN1C(=O)[C@H](CCCN=C(N)N)NC(=O)[C@H](CC(C)C)NC(=O)[C@H](CC(C)C)NC(=O)[C@@H]1CCCN1C(=O)[C@H](CCCN=C(N)N)NC(=O)[C@@H](N)CC(C)C)C(N)=O [LRPLLRPLLRPLLRPLLRPLLRPLLRPL] | – | – | – | 1 (≈ 3.37 µg/mL) | 1 (≈ 3.37 µg/mL) | 1 (≈ 3.37 µg/mL) | 1 (≈ 3.37 µg/mL) | 2 (≈ 6.75 µg/mL) | 1 (≈ 3.37 µg/mL) | 2 (≈ 6.75 µg/mL) | 1 (≈ 3.37 µg/mL) | 8 (≈ 27 µg/mL) | 2 (≈ 6.75 µg/mL) | 1 (≈ 3.37 µg/mL) | 2.83 (≈ 9.54 µg/mL) | 1 (≈ 3.37 µg/mL) | 1 (≈ 3.37 µg/mL) | 2 (≈ 6.75 µg/mL) | – |
| CC(C)C[C@H](NC(=O)[C@H](CC(C)C)NC(=O)[C@H](CC(C)C)NC(=O)[C@H](CC(C)C)NC(=O)[C@H](CC(C)C)NC(=O)[C@H](CCCCN)NC(=O)[C@@H](N)CCCCN)C(=O)N[C@@H](CCCCN)C(=O)N[C@@H](CCCCN)C(N)=O [KKLLLLLKK] | 31.9 (≈ 35 µg/mL) | 14.6 (≈ 16 µg/mL) | 31.9 (≈ 35 µg/mL) | – | – | – | – | – | – | – | – | – | – | – | – | – | – | – | – |
| CC[C@H](C)[C@H](NC(=O)CNC(=O)[C@H](CCCCN)NC(=O)[C@@H](NC(=O)[C@H](CC(C)C)NC(=O)[C@H](CC(C)C)NC(=O)[C@@H](NC(=O)[C@H](CCCCN)NC(=O)CNC(=O)[C@@H](NC(=O)[C@@H](N)CCCCN)[C@@H](C)CC)C(C)C)C(C)C)C(=O)N[C@@H](CCCCN)C(N)=O [KIGKVLLVKGIK] | – | – | – | – | – | – | – | – | – | – | – | – | – | – | – | – | – | – | MIC [12]: ≥ 64 µM; MIC (Candida albicans): > 64 µM; MIC [13]: ≥ 64 µM; MIC [14]: ≥ 64 µM |

From DBAASP
